Results taken from ChEMBL document CHEMBL1201862, “PubChem BioAssay data set” (2004).
Values belong to the compound of their own block, whether it stands above or below them. Activity calls are given as the source filed them.

Columns and labels:
[1] = molecular target: C-X-C chemokine receptor type 4 (Homo sapiens, UniProt P61073); assay: SAR analysis of small molecule antagonists of the CXCR6 receptor using a CXCR4 receptor luminescent beta-arrestin counterscreen.; format: functional
[2] = molecular target: C-C chemokine receptor type 6 (Homo sapiens, UniProt P51684); assay: SAR analysis of small molecule antagonists of the CXCR6 receptor using a CCR6 receptor luminescent beta-arrestin counterscreen.; format: functional
[3] = HepG2 hepatoma cell viability loss – plate reader, dry powder, cytotoxicity control, dose response (AID 651947); format: functional, cell-based
[4] = molecular target: fMet-Leu-Phe receptor (Homo sapiens, UniProt P21462); assay: formyl peptide receptor binders – dose response (AID 519); format: functional
[5] = fluconazole-exposed Candida albicans growth modulators – fluorescence, retest, confirmation (AID 2467); format: functional, cell-based
[6] = NIH-3T3 fibroblast cytotoxicity, dose response, cytotoxicity control, cell-based, fluorescence, Alamar Blue, secondary assay (AID 2327); format: functional;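 also: NIH-3T3 mouse fibroblasts cultured with fluconazole at 8 µg/mL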
[7] = molecular target: Kallikrein-7 (Homo sapiens, UniProt P49862); assay: Fluorescence Intensity-based biochemical primary high throughput dose response assay to identify activators of kallikrein-7 (K7) zymogen.
[8] = molecular target: T1, Interleukin-8 (Homo sapiens, UniProt P10145); assay: Dose Response confirmation of uHTS small molecule hits for cystic fibrosis induced NFkb Inhibitors in a PAF-induced IL8 counterscreen.; format: functional; conditions: read-out: IC50_Mean
T1 sequence (P10145 whole entry): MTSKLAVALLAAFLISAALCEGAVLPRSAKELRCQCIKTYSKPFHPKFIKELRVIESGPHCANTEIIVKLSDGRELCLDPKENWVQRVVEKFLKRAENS

[9] = OVCAR8 cell viability loss – plate reader, dry powder samples, PAX8 project, dose response (AID 743197); format: functional, cell-based; conditions: OVCAR-8
[10] = OVCAR-3 cell viability loss – plate reader, dry powder samples, PAX8 inhibitor project, dose response (AID 743044); format: functional, cell-based
[11] = IGROV1 cell killing – plate reader, dry powder samples, PAX8 inhibitor project, dose response (AID 743043); format: functional, cell-based; conditions: IGROV-1
[12] = toxicity toward immortalized ovarian surface epithelium – cell-based, plate reader, dry powder samples, cytotoxicity control for PAX8 inhibitor project, dose response (AID 743045); format: functional
[13] = molecular target: Paired box protein Pax-8 (Homo sapiens, UniProt Q06710); assay: PAX8 transcriptional activity inhibition in RMG-I – RMG-I cells, luciferase, cherry-pick, dose response (AID 687027); format: functional, cell-based;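 also: luciferase reporter driven by Pax8 target thyroperoxidase promoter measured by SteadyGlo luminescence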
[14] = molecular target: T2, Serine/threonine-protein phosphatase (Homo sapiens, UniProt Q9BPW0); assay: Counterscreen for inhibitors of PP1: fluorescence-based biochemical high throughput dose response assay to identify inhibitors of Protein Phosphatase 5 (PP5). [Related pubchem assays: 2034 (Summary (PP5 inhibitors)), 1987 (PP5 inhibitors in singlate), 2235 (PP1 inhibitors in singlate)]
T2 sequence (Q9BPW0 whole entry): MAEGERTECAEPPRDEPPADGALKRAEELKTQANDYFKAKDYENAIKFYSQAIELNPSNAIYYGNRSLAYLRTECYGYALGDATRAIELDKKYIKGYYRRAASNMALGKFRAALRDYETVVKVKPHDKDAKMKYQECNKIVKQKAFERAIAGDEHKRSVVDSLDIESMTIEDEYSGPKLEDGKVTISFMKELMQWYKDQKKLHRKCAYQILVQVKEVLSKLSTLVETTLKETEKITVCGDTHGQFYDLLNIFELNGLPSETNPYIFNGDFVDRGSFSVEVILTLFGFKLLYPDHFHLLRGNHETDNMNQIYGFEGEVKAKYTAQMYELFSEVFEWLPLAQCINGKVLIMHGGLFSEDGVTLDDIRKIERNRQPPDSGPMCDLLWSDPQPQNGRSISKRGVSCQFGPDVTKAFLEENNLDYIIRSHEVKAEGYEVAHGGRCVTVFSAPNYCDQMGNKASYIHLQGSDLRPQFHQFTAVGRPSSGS

[15] = molecular target: T3, Aminopeptidase N (Plasmodium falciparum FcB1/Columbia, UniProt O96935); assay: malaria alanyl aminopeptidase activity blockers – biochemical, fluorogenic H-Leu-NHMec substrate, 1536-well (AID 1445); set-up: species or system Plasmodium falciparum 3D7, 3D7
T3 sequence (O96935 whole entry): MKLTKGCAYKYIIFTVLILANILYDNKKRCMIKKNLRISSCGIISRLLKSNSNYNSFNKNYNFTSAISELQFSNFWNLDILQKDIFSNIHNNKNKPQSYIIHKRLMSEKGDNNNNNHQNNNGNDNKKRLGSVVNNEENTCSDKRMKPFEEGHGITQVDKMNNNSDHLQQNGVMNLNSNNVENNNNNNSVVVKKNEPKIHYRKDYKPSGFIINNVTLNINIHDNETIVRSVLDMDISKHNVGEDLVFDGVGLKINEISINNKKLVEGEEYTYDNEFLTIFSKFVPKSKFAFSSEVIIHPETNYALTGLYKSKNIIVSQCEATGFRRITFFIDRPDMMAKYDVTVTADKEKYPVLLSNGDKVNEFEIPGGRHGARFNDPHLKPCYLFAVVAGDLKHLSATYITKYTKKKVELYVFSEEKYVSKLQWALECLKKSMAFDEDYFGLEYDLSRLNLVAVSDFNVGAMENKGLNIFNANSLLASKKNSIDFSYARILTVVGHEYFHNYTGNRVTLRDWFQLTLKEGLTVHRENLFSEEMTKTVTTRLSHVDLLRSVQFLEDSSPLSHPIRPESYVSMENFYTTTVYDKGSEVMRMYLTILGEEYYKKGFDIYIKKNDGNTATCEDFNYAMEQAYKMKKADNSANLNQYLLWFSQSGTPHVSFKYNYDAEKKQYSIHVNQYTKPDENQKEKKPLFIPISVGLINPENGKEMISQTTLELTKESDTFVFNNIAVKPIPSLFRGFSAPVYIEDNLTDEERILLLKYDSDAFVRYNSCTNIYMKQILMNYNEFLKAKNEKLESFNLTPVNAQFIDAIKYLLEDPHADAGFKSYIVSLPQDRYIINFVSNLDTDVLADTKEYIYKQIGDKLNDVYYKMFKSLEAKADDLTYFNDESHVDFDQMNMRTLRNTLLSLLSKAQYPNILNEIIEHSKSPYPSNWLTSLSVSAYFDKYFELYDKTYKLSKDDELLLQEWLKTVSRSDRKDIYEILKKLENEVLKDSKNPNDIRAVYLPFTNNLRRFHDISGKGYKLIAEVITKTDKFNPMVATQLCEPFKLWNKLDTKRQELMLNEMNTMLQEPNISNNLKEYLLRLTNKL

[16] = molecular target: Endoplasmic reticulum aminopeptidase 1 (Homo sapiens, UniProt Q9NZ08); assay: inhibition of human ERAP1 enzyme activity – biochemical, cherry-pick, set 2, plate reader, dose response (AID 743314)
[17] = molecular target: Serine/threonine-protein phosphatase PP1-alpha catalytic subunit (Homo sapiens, UniProt P62136); assay: inhibition of protein phosphatase 1 activity – biochemical, fluorescence, dose response (AID 2403);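 also: phosphatase turnover of OMFP into fluorescent 3-O-methylfluorescein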
Serine/threonine-protein phosphatase PP1-alpha catalytic subunit, sequence (P62136 whole entry): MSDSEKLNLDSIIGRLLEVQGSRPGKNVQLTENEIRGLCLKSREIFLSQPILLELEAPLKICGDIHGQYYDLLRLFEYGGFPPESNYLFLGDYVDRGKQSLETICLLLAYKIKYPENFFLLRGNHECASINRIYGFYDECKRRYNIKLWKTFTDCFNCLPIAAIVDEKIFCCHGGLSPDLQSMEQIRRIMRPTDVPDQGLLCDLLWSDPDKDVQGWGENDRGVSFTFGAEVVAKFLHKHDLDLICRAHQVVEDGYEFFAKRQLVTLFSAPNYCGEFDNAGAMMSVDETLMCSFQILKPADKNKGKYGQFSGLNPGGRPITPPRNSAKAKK

C-C chemokine receptor type 6, sequence (P51684 whole entry): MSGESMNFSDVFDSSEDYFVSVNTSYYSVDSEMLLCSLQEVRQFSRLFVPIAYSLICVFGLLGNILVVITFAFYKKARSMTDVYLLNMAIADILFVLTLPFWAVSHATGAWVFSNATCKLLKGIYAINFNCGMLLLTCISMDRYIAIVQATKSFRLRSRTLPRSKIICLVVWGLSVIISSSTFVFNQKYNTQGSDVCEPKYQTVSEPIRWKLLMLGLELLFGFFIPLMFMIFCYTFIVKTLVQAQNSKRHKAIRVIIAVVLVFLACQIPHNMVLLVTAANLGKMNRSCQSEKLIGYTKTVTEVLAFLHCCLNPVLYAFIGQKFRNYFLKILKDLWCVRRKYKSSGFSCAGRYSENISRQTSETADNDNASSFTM
Paired box protein Pax-8, sequence (Q06710 whole entry): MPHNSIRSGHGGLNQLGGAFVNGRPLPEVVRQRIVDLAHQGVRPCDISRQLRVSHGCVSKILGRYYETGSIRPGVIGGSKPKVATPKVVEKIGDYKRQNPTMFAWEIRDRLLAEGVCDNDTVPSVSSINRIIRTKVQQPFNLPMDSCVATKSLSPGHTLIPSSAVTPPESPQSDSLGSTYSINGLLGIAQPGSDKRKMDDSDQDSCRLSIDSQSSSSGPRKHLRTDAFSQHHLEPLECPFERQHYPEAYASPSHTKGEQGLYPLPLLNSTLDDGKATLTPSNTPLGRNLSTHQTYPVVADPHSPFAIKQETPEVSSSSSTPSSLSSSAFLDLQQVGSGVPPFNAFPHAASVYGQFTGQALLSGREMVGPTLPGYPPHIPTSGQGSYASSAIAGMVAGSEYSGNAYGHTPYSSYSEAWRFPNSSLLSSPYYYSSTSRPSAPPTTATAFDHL
Endoplasmic reticulum aminopeptidase 1, sequence (Q9NZ08 whole entry): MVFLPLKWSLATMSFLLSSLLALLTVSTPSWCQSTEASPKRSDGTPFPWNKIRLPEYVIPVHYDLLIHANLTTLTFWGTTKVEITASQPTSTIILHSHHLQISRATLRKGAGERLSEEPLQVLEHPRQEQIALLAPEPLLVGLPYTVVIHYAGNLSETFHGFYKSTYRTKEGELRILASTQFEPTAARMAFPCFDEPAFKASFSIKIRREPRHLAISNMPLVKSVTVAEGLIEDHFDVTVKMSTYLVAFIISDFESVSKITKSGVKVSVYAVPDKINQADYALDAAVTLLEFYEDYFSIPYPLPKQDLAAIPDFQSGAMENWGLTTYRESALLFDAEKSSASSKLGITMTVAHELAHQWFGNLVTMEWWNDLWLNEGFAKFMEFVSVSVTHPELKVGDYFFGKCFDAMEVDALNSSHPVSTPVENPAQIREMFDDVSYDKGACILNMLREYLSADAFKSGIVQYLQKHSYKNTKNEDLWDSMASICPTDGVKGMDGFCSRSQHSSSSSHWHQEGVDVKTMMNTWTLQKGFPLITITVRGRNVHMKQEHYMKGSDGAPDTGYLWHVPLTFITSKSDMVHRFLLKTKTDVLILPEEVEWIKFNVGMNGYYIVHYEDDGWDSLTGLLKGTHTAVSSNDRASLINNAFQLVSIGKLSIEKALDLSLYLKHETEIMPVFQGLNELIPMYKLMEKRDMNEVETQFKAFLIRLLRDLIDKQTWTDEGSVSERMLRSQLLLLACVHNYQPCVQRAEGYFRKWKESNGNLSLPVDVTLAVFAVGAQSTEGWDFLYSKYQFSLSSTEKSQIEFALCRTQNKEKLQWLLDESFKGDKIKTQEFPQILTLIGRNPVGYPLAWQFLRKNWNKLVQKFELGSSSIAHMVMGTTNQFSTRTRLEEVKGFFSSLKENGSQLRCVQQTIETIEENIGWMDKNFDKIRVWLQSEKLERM
fMet-Leu-Phe receptor, sequence (P21462 whole entry): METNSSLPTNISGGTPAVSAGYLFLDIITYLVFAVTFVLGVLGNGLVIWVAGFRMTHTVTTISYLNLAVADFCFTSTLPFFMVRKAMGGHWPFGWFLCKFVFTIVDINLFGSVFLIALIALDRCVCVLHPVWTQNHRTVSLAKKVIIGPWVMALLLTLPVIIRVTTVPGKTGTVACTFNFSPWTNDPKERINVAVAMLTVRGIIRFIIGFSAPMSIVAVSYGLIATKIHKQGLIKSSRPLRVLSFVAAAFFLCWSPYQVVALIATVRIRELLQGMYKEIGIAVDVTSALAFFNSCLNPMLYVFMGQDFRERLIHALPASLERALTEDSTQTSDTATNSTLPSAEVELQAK
Kallikrein-7, sequence (P49862 whole entry): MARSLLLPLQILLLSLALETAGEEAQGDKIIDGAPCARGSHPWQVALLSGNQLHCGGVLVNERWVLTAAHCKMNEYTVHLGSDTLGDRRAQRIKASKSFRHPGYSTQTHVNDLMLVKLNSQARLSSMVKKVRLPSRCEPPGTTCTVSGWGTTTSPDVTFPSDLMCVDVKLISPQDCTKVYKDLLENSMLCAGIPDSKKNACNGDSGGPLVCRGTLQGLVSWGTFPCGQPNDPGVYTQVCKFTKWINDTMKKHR
C-X-C chemokine receptor type 4, sequence (P61073 whole entry): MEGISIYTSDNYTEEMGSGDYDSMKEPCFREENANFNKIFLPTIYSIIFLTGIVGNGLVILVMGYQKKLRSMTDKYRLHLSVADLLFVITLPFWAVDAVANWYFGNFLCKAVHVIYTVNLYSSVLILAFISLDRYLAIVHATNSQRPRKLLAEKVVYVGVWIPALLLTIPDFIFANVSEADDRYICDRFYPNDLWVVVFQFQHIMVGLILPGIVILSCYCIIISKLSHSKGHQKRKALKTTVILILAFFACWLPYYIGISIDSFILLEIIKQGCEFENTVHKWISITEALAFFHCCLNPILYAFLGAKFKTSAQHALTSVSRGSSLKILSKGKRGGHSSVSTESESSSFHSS

Structure (SMILES): COc1cc(C(=O)NC2CC3CCCC(C2)N3CC(=O)Nc2ccccc2)cc(OC)c1OC (configuration not stated)
IC50 [1]: > 79 µM (inactive)
IC50 [2]: > 79 µM (inactive)

Structure (SMILES): FC(F)(F)c1ccc(CSc2nnc(-c3ccccc3)o2)cc1
AC50 [3]: 0.223 µM (active)

Ki [4]: > 66.7 µM (inactive)
Structure (SMILES): Cc1cc(SCC(N)=O)nc(SCC(=O)c2ccccc2)n1

Structure (SMILES): COc1ccc(-c2cc(=O)oc3cc(OC(=O)C4CCCCC4)c(Cl)cc23)cc1
EC50 [5]: 1.9 µM (active)
EC50 [6]: 34.6 µM (active)
EC50 [7]: > 69.5 µM (inactive)
IC50 [8]: 4.55 µM (active)

Structure (SMILES): O=C(NC1CCCCC1)N1C[C@@H]2N[C@H](C1)[C@@H]2c1ccc(-c2ccc(F)cc2)cc1
AC50 [9]: > 70 µM (inactive)
AC50 [10]: 22 µM (active)
AC50 [11]: 63.7 µM (active)
AC50 [12]: 45.7 µM (active)
AC50 [13]: 17.2 µM (active)

Structure (SMILES): CCCCCCC[C@H](N)[C@H](O)C(=O)N(C)[C@@H](CC[S+](C)[O-])C(=O)N[C@@H](Cc1ccc(O)cc1)C(=O)N[C@@H](Cc1ccc(O)cc1)C(=O)O (some centres not stated)
IC50 [14]: 0.578 µM (active)
IC50 [15]: 16.8 µM (active)
AC50 [16]: 8.53 µM (active)
IC50 [17]: 0.227 µM (active)
